From patent US11136301B2, “Broad spectrum antiviral compounds and uses thereof” (The Regents Of The University Of California, priority 2015, dated 2021)
pIC50: −log10 of the molar value. Read-outs that look alike come from different tables or passages of the source.

Legend:
[1] = test system: wild-type HIV-1 (HIV-1LAI) in H9 cells (non-permissive); experiment: microbe, parasite or virus in culture; format: cell-based; conditions: for pIC50: Human immunodeficiency virus 1, H9, read-out: IC50, anti-HIV-1 activity, non-permissive H9 cells
[2] = test system: wild-type HIV-1 (HIV-1LAI) in MT-4 cells (permissive); experiment: Antiviral activity assay: wild-type HIV-1 in permissive MT4 cells, reverse transcriptase activity in culture supernatants; format: cell-based
[3] = Human immunodeficiency virus 1, H9, read-out: Antiviral activity (IC50 μM) H9, Table 2, wild-type HIV-1, non-permissive H9 cells
[4] = Human immunodeficiency virus 1, H9, read-out: Antiviral activity (IC50 μM) H9 cells, Table 5, wild-type HIV-1, non-permissive H9 cells
[5] = Human immunodeficiency virus 1, H9, read-out: Antiviral activity (IC50 μM) H9 cells, Table 8, wild-type HIV-1, non-permissive H9 cells
[6] = Human immunodeficiency virus 1, H9, read-out: Antiviral activity (IC50 μM) H9 cells, wild-type HIV-1 (HIV-1LAI), H9 cells (non-permissive), RT activity in culture supernatants, compounds 1 to 50 μM
[7] = Human immunodeficiency virus 1, MT4, Table 2, wild-type HIV-1, permissive MT4 cells, read-out: Antiviral activity (IC50 μM) MT4
[8] = Human immunodeficiency virus 1, MT4, wild-type HIV-1 (HIV-1LAI), MT4 cells (permissive), RT activity in culture supernatants, compounds 1 to 50 μM, read-out: Antiviral activity (IC50 μM) MT4 cells
[9] = Human immunodeficiency virus 1, H9, read-out: Antiviral activity (IC50 μM) H9 Cells, Table 4, wild-type HIV-1, non-permissive H9 cells
[10] = Human immunodeficiency virus 1, H9, read-out: Antiviral activity (IC50 μM) H9 Cells, Table 7, wild-type HIV-1, non-permissive H9 cells

Structure (SMILES) | IC50 [1, 3] | IC50 [1, 4] | IC50 [1, 5] | IC50 [1, 6] | IC50 [2, 7] | IC50 [2, 8] | IC50 [1, 9] | IC50 [1, 10] | pIC50 [1]
COC(=O)c1ccc(S(=O)(=O)c2ccccc2-c2cn(-c3c(OC)cccc3OC)nn2)cc1 [Compound 6by, Methyl 4-((2-(1-(2,6-dimethoxyphenyl)-1H-1,2,3-triazol-4-yl)phenyl)sulfonyl)benzoate] | > 50 µM | > 50 µM | > 50 µM | > 50 µM | > 50 µM | > 50 µM | – | – | –
COc1cccc(-n2cc(-c3ccccc3S(=O)(=O)c3ccc(C(=O)O)cc3)nn2)c1OC [Compound 3fy, 4-((2-(1-(2,3-Dimethoxyphenyl)-1H-1,2,3-triazol-4-yl)phenyl)sulfonyl)benzoic Acid] | 1.4 µM | 1.4 µM | 1.4 µM | 1.4 µM | > 50 µM | > 50 µM | 1.4 µM | 1.4 µM | 5.52 to 6.00
COC(=O)c1ccc(S(=O)(=O)c2ccccc2-c2cn(-c3cccc(OC)c3OC)nn2)cc1 [Compound 3by, Methyl 4-((2-(1-(2,3-dimethoxyphenyl)-1H-1,2,3-triazol-4-yl)phenyl)sulfonyl)benzoate] | 4.7 µM | 4.7 µM | 4.7 µM | 4.7 µM | > 50 µM | > 50 µM | 4.7 µM | 4.7 µM | –
COc1ccccc1-n1cc(-c2ccccc2Sc2ccc(N)cc2)nn1 [Compound 2ex, 4-((2-(1-(2-Methoxyphenyl)-1H-1,2,3-triazol-4-yl)phenyl)thio)aniline] | 2.5 µM | 2.5 µM | 2.5 µM | 2.5 µM | > 50 µM | > 50 µM | 7.5 µM | 2.5 µM | 5.52 to 6.00
COc1ccc(-n2cc(-c3ccccc3Sc3ccc(C(=O)O)cc3)nn2)c(OC)c1 [Compound 4fx, 4-((2-(1-(2,4-Dimethoxyphenyl)-1H-1,2,3-triazol-4-yl)phenyl)thio)benzoic Acid] | 7.1 µM | 7.1 µM | 7.1 µM | 7.1 µM | > 50 µM | > 50 µM | 7.1 µM | 7.1 µM | –
COc1cccc(F)c1-n1cc(-c2ccccc2S(=O)(=O)c2ccc([N+](=O)[O-])cc2)nn1 [Compound 7ay, 1-(2-Fluoro-6-methoxyphenyl)-4-(2-((4-nitrophenyl)sulfonyl)phenyl)-1H-1,2,3-triazole] | > 50 µM | > 50 µM | > 50 µM | > 50 µM | > 50 µM | > 50 µM | – | – | –
COc1ccc(OC)c(-n2cc(-c3ccccc3S(=O)(=O)c3ccc(C(=O)O)cc3)nn2)c1 [Compound 5fy, 4-((2-(1-(2,5-Dimethoxyphenyl)-1H-1,2,3-triazol-4-yl)phenyl)sulfonyl)benzoic Acid] | > 50 µM | > 50 µM | > 50 µM | > 50 µM | > 50 µM | > 50 µM | – | – | –
COC(=O)c1ccc(S(=O)(=O)c2ccccc2-c2cn(-c3cc(OC)ccc3OC)nn2)cc1 [Compound 5by, Methyl 4-((2-(1-(2,5-dimethoxyphenyl)-1H-1,2,3-triazol-4-yl)phenyl)sulfonyl)benzoate] | 4.6 µM | 4.6 µM | 4.6 µM | 4.6 µM | > 50 µM | > 50 µM | 4.6 µM | 4.6 µM | –
COc1cccc(-n2cc(-c3ccccc3S(=O)(=O)c3ccc(N)cc3)nn2)c1OC [Compound 3ey, 4-((2-(1-(2,3-Dimethoxyphenyl)-1H-1,2,3-triazol-4-yl)phenyl)sulfonyl)aniline] | 12.4 µM | 12.4 µM | 12.4 µM | 12.4 µM | > 50 µM | > 50 µM | 12.4 µM | 12.4 µM | –
COc1cccc(-n2cc(-c3ccccc3S(=O)(=O)c3ccc([N+](=O)[O-])cc3)nn2)c1OC [Compound 3ay, 1-(2,3-Dimethoxyphenyl)-4-(2-((4-nitrophenyl)sulfonyl)phenyl)-1H-1,2,3-triazole] | > 50 µM | > 50 µM | > 50 µM | > 50 µM | > 50 µM | > 50 µM | – | – | –
COc1ccc(S(=O)(=O)c2ccccc2-c2cn(-c3cc(OC)ccc3OC)nn2)cc1 [Compound 5cy, 1-(2,5-Dimethoxyphenyl)-4-(2-((4-methoxyphenyl)sulfonyl)phenyl)-1H-1,2,3-triazole] | > 50 µM | > 50 µM | > 50 µM | > 50 µM | > 50 µM | > 50 µM | – | – | –
COc1ccc(OC)c(-n2cc(-c3ccccc3Sc3ccc(C(F)(F)F)cc3)nn2)c1 [Compound 5dx, 1-(2,5-Dimethoxyphenyl)-4-(2-((4-(trifluoromethyl)phenyl)thio)phenyl)-1H-1,2,3-triazole] | 46.4 µM | 46.4 µM | 46.4 µM | 46.4 µM | > 50 µM | > 50 µM | – | – | –
COc1cccc(-n2cc(-c3ccccc3Sc3ccc([N+](=O)[O-])cc3)nn2)c1OC [Compound 3ax, 1-(2,3-Dimethoxyphenyl)-4-(2-((4-nitrophenyl)thio)phenyl)-1H-1,2,3-triazole] | 1.1 µM | 1.1 µM | 1.1 µM | 1.1 µM | > 50 µM | > 50 µM | 1.1 µM | 1.1 µM | 5.52 to 6.00
COC(=O)c1ccc(S(=O)(=O)c2ccccc2-c2cn(-c3ccccc3OC)nn2)cc1 [Compound 2by, Methyl 4-((2-(1-(2-methoxyphenyl)-1H-1,2,3-triazol-4-yl)phenyl)sulfonyl)benzoate] | > 50 µM | > 50 µM | > 50 µM | > 50 µM | > 50 µM | > 50 µM | – | – | –
COc1ccc(S(=O)(=O)c2ccccc2-c2cn(-c3ccccc3OC)nn2)cc1 [Compound 2cy, 1-(2-Methoxyphenyl)-4-(2-((4-methoxyphenyl)sulfonyl)phenyl)-1H-1,2,3-triazole] | 4.3 µM | 4.3 µM | 4.3 µM | 4.3 µM | > 50 µM | > 50 µM | 4.3 µM | 4.3 µM | –
COc1ccccc1-n1cc(-c2ccccc2S(=O)(=O)c2ccc([N+](=O)[O-])cc2)nn1 [Compound 2ay, 1-(2-Methoxyphenyl)-4-(2-((4-nitrophenyl)sulfonyl)phenyl)-1H-1,2,3-triazole] | 13.8 µM | 13.8 µM | 13.8 µM | 13.8 µM | > 50 µM | > 50 µM | 13.8 µM | 13.8 µM | –
COc1ccccc1-n1cc(-c2ccccc2S(=O)(=O)c2ccc(C(F)(F)F)cc2)nn1 [Compound 2dy, 1-(2-Methoxyphenyl)-4-(2-((4-(trifluoromethyl)phenyl)sulfonyl)phenyl)-1H-1,2,3-triazole] | 4.8 µM | 4.8 µM | 4.8 µM | 4.8 µM | > 50 µM | > 50 µM | 4.8 µM | 4.8 µM | –
COc1ccc(OC)c(-n2cc(-c3ccccc3Sc3ccc(N)cc3)nn2)c1 [Compound 5ex, 4-((2-(1-(2,5-Dimethoxyphenyl)-1H-1,2,3-triazol-4-yl)phenyl)thio)aniline] | > 50 µM | > 50 µM | > 50 µM | > 50 µM | > 50 µM | > 50 µM | – | – | –
COc1cccc(-n2cc(-c3ccccc3Sc3ccc(N)cc3)nn2)c1OC [Compound 3ex, 4-((2-(1-(2,3-Dimethoxyphenyl)-1H-1,2,3-triazol-4-yl)phenyl)thio)aniline] | – | 5 µM | 5 µM | 5 µM | – | – | – | – | –
COc1ccc(-n2cc(-c3ccccc3Sc3ccc([N+](=O)[O-])cc3)nn2)c(OC)c1 [Compound 4ax, 1-(2,4-Dimethoxyphenyl)-4-(2-((4-nitrophenyl)thio)phenyl)-1H-1,2,3-triazole] | – | > 50 µM | > 50 µM | > 50 µM | – | – | – | – | –
COc1cccc(OC)c1-n1cc(-c2ccccc2Sc2ccc([N+](=O)[O-])cc2)nn1 [Compound 6ax, 1-(2,6-Dimethoxyphenyl)-4-(2-((4-nitrophenyl)thio)phenyl)-1H-1,2,3-triazole] | – | 6.3 µM | 6.3 µM | 6.3 µM | – | – | – | – | –
COC(=O)c1ccc(S(=O)(=O)c2ccccc2-c2cn(-c3c(F)cccc3OC)nn2)cc1 [Compound 7by, Methyl 4-((2-(1-(2-fluoro-6-methoxyphenyl)-1H-1,2,3-triazol-4-yl)phenyl)sulfonyl)benzoate] | – | > 50 µM | > 50 µM | > 50 µM | – | – | – | – | –
COc1ccc(-n2cc(-c3ccccc3Sc3ccc(C(F)(F)F)cc3)nn2)c(OC)c1 [Compound 4dx, 1-(2,4-Dimethoxyphenyl)-4-(2-((4-(trifluoromethyl)phenyl)thio)phenyl)-1H-1,2,3-triazole] | – | 1.1 µM | 1.1 µM | 1.1 µM | – | – | – | – | –
